# Patent US11389438B2 (CHDI Foundation, Inc., priority 2019, dated 2022)
# Where a name gives a salt, the structure may show the parent alone.
# Target: pre-formed polyQ46 or Exon1-polyQ46 aggregates (mHTT) (Homo sapiens, UniProt P42858, INS38QQQQQQQQQQQQQQQQQQQQQQQQQ)
# Test: Q46_RBA radioligand binding assay (displacement of [3H]-radioligand)
# Protocol: Binding of W to mHTT. A radioligand binding assay was developed to screen for compounds which can efficiently displace a radioligand detailed elsewhere (see, e.g., U.S. Patent Publication No. from US 2017/0292150) pre-formed polyQ46 or Exon1-polyQ46 aggregates (Q46_RBA).
# Aggregation of polyQ peptides is initiated by cleavage of the tag from a GST-polyQ46 or from a MBP-Exon1-polyQ46 fusion protein. The pre-formed aggregates are then incubated with compounds which compete with the [^3H]-radiolabelled ligand for binding to the aggregates. The readout is a scintillation based MicroBeta measurement of radioligand bound to aggregates. The activity was indicated as: +++, <100 nM; ++, 100-500 nM, +, >500 nM.
row,SMILES,IC50 [nM]
1,CC(C)C[C@H](NC(=O)[C@@H](O)[C@H](N)Cc1ccccc1)C(=O)NCCOCCOCCOc1ccc(C(=O)Nc2ccc3oc(-c4ccc(=O)n(C)n4)nc3c2)nc1 (stereo in doubt) [Compound 13],< 100
2,"CNc1c(-c2cn3c(n2)sc2cc(OCCOCCOCCOCCOCC(=O)N[C@H](C(=O)N4C[C@H](O)C[C@H]4C(=O)NCc4ccc(-c5scnc5C)cc4)C(C)(C)C)ccc23)nc2cc(C#N)ccn12 [Compound 4, (2S,4R)-1-((S)-2-(tert-butyl)-17-((2-(7-cyano-3-(methylamino)-imidazo[1,2-a]pyridin-2-yl)benzo[d]imidazo[2,1-b]thiazol-7-yl)oxy)-4-oxo-6,9,12,15-tetraoxa-3-azaheptadecan-1-oyl)-4-hydroxy-N-(4-(4-methylthiazol-5-yl)benzyl)-pyrrolidine-2-carboxamide]",100 to 500
3,"CNc1c(-c2cn3c(n2)sc2cc(OCCOc4cc(-c5scnc5C)ccc4CNC(=O)[C@@H]4C[C@@H](O)CN4C(=O)[C@H](C(C)C)N4Cc5ccccc5C4=O)ccc23)nc2cc(C#N)ccn12 [Compound 5, (2S,4R)—N-(2-(2-((2-(7-cyano-3-(methylamino)imidazo[1,2-a]pyridin-2-yl)benzo[d]imidazo[2,1-b]thiazol-7-yl)oxy)ethoxy)-4-(4-methylthiazol-5-yl)benzyl)-4-hydroxy-1-((S)-3-methyl-2-(1-oxoisoindolin-2-yl)butanoyl)pyrrolidine-2-carboxamide]",100 to 500
4,CNc1c(-c2cn3c(n2)sc2cc(OCCOCCOc4cc(-c5scnc5C)ccc4CNC(=O)[C@@H]4C[C@@H](O)CN4C(=O)[C@H](C(C)C)N4Cc5ccccc5C4=O)ccc23)nc2cc(C#N)ccn12 [Compound 6],100 to 500
5,CNc1c(-c2cn3c(n2)sc2cc(OCCOCCOCCOc4cc(-c5scnc5C)ccc4CNC(=O)[C@@H]4C[C@@H](O)CN4C(=O)[C@H](C(C)C)N4Cc5ccccc5C4=O)ccc23)nc2cc(C#N)ccn12 [Compound 7],100 to 500
6,CNc1c(-c2cn3c(n2)sc2cc(OCCOCCOCCOCCOc4cc(-c5scnc5C)ccc4CNC(=O)[C@@H]4C[C@@H](O)CN4C(=O)[C@H](C(C)C)N4Cc5ccccc5C4=O)ccc23)nc2cc(C#N)ccn12 [Compound 8],100 to 500
7,CNc1c(-c2cn3c(n2)sc2cc(OCCOCCNc4cccc5c4C(=O)N(C4CCC(=O)NC4=O)C5=O)ccc23)nc2cc(C#N)ccn12 (stereo not shown) [Compound 9],< 100
8,CC(C)C[C@H](NC(=O)[C@@H](O)[C@H](N)Cc1ccccc1)C(=O)NCCOCCOc1ccc(C(=O)Nc2ccc3oc(-c4ccc(=O)n(C)n4)nc3c2)nc1 [Compound 12],< 100
9,CC(C)C[C@H](NC(=O)[C@@H](O)[C@H](N)Cc1ccccc1)C(=O)NCCOCCOCCOCCOc1ccc(C(=O)Nc2ccc3oc(-c4ccc(=O)n(C)n4)nc3c2)nc1 [Compound 14],< 100
10,CC(C)C[C@H](NC(=O)[C@@H](O)[C@H](N)Cc1ccccc1)C(=O)NCCOCCOCCOCCOCCOc1ccc(C(=O)Nc2ccc3oc(-c4ccc(=O)n(C)n4)nc3c2)nc1 [Compound 15],< 100
11,CC(C)C[C@H](NC(=O)[C@@H](O)[C@H](N)Cc1ccccc1)C(=O)NCCOCCOCCOCCOCCOCCOc1ccc(C(=O)Nc2ccc3oc(-c4ccc(=O)n(C)n4)nc3c2)nc1 [Compound 16],< 100
12,CC(C)C[C@H](NC(=O)[C@@H](O)[C@H](N)Cc1ccccc1)C(=O)NCCOCCOCCOCCOCCOCCOCCOCCOCCOc1ccc(C(=O)Nc2ccc3oc(-c4ccc(=O)n(C)n4)nc3c2)nc1 [Compound 17],< 100
13,Cc1ncsc1-c1ccc(CNC(=O)[C@H]2C[C@H](O)CN2C(=O)[C@H](NC(=O)CCOCCOCCOCCOCCOCCOCCOCCOCCOCCOCCOCCOCCOCCOCCOCCOCCOc2ccc(C(=O)Nc3ccc4oc(-c5ccc(=O)n(C)n5)nc4c3)nc2)C(C)(C)C)cc1 [Compound 27],100 to 500
14,Cc1ncsc1-c1ccc(CNC(=O)[C@@H]2C[C@@H](O)CN2C(=O)[C@@H](NC(=O)COCCOc2ccc(C(=O)Nc3ccc4oc(-c5ccc(=O)n(C)n5)nc4c3)nc2)C(C)(C)C)cc1 [Compound 29],< 100
15,Cn1nc(-c2nc3cc(NC(=O)c4ccc(OCCOCCNc5cccc6c5C(=O)N(C5CCC(=O)NC5=O)C6=O)cn4)ccc3o2)ccc1=O (stereo not shown) [Compound 35],< 100
16,Cc1ncsc1-c1ccc(CNC(=O)[C@H]2C[C@H](O)CN2C(=O)[C@H](NC(=O)CCOCCOCCOCCOCCOCCOc2ccc(C(=O)Nc3ccc4oc(-c5ccc(=O)n(C)n5)nc4c3)nc2)C(C)(C)C)cc1 [Compound 41],< 100

row,SMILES,IC50 [nM]
1,"CC(C)C[C@H](NC(=O)[C@@H](O)[C@H](N)Cc1ccccc1)C(=O)NCCOCCOCCOc1ccc(COc2ccc3oc(-c4ccc(=O)n(C)n4)nc3c2)nc1 [Compound 49, (2S)-2-[(2S,3R)-3-Azaniumyl-2-hydroxy-4-phenylbutanamido]-4-methyl-N-{2-[2-(2-{[6-({[2-(1-methyl-6-oxo-1,6-dihydropyridazin-3-yl)-1,3-benzoxazol-5-yl]oxy}methyl)pyridin-3-yl]oxy}ethoxy)ethoxy]ethyl}pentanamide formate]",< 100
2,"COc1ccc(C(=O)Nc2ccc3oc(-c4ccc(=O)n(CCOCCOCCNC(=O)[C@H](CC(C)C)NC(=O)[C@@H](O)[C@H](N)Cc5ccccc5)n4)nc3c2)nc1 [Compound 50, N-(2-{1-[2-(2-{2-[(2S)-2-[(2S,3R)-3-Amino-2-hydroxy-4-phenylbutanamido]-4-methylpentanamido]ethoxy}ethoxy)ethyl]-6-oxo-1,6-dihydropyridazin-3-yl}-1,3-benzoxazol-5-yl)-5-methoxypyridine-2-carboxamide]",< 100
3,"Cc1ncsc1-c1ccc(CNC(=O)[C@H]2C[C@H](O)CN2C(=O)[C@H](NC(=O)COCCOc2ccc(C(=O)Nc3ccc4oc(-c5ccc(=O)n(C)n5)nc4c3)nc2)C(C)(C)C)cc1 [Compound 51, 5-[2-({[(2R)-1-[(2R,4S)-4-Hydroxy-2-({[4-(4-methyl-1,3-thiazol-5-yl)phenyl]methyl}carbamoyl)pyrrolidin-1-yl]-3,3-dimethyl-1-oxobutan-2-yl]carbamoyl}methoxy)ethoxy]-N-[2-(1-methyl-6-oxo-1,6-dihydropyridazin-3-yl)-1,3-benzoxazol-5-yl]pyridine-2-carboxamide]",< 100
4,"CC(C)C[C@H](NC(=O)CCCc1ccccc1)C(=O)NCCOCCOCCOc1ccc(COc2ccc3oc(-c4ccc(=O)n(C)n4)nc3c2)nc1 [Compound 52, (2S)-4-Methyl-N-{2-[2-(2-{[6-({[2-(1-methyl-6-oxo-1,6-dihydropyridazin-3-yl)-1,3-benzoxazol-5-yl]oxy}methyl)pyridin-3-yl]oxy}ethoxy)ethoxy]ethyl}-2-(4-phenylbutanamido)pentanamide]",< 100
5,"CC(C)C[C@H](NC(=O)[C@@H](O)[C@H](N)Cc1ccccc1)C(=O)NCCOCCOCCOc1ccc(NC(=O)c2ccn3c(n2)nc2ccccc23)cn1 [Compound 59, N-{6-[2-(2-{2-[(2S)-2-[(2S,3R)-3-amino-2-hydroxy-4-phenylbutanamido]-4-methylpentanamido]ethoxy}ethoxy)ethoxy]pyridin-3-yl}-1,8,10-triazatricyclo[7.4.0.0^2,7]trideca-2,4,6,8,10,12-hexaene-11-carboxamide]",< 100
6,"CC(C)C[C@H](NC(=O)[C@@H](O)[C@H](N)Cc1ccccc1)C(=O)NCCOCCOCCNc1ccc(NC(=O)c2ccn3c(n2)nc2ccccc23)cn1 [Compound 60, N-(6-{[2-(2-{2-[(2S)-2-[(2S,3R)-3-azaniumyl-2-hydroxy-4-phenylbutanamido]-4-methylpentanamido]ethoxy}ethoxy)ethyl]amino}pyridin-3-yl)-1,8,10-triazatricyclo[7.4.0.0^2,7]trideca-2,4,6,8,10,12-hexaene-11-carboxamide formate]",< 100
7,CC(C)C[C@H](NC(=O)[C@@H](O)[C@H](N)Cc1ccccc1)C(=O)NCCOCCOCCOc1ccc(C(=O)Nc2ccc3oc(-c4cccnc4)nc3c2)nc1 [Compound 61],< 100
8,"CC(C)C[C@H](NC(=O)[C@@H](O)[C@H](N)Cc1ccccc1)C(=O)NCCOCCOCCOCCOc1ccc(C(=O)Nc2ccc3oc(-c4cccnc4)nc3c2)nc1 [Compound 62, 5-{2-[2-(2-{2-[(2S)-2-[(2S,3R)-3-Azaniumyl-2-hydroxy-4-phenylbutanamido]-4-methylpentanamido]ethoxy}ethoxy)ethoxy]ethoxy}-N-[2-(pyridin-3-yl)-1,3-benzoxazol-5-yl]pyridine-2-carboxamide diformate]",< 100
9,Cc1ccc2nc(-c3ccc(NCCOCCOCCOc4cccc5c4C(=O)N(C4CCC(=O)NC4=O)C5=O)cc3)sc2c1 (stereo not shown) [Compound 63],< 100
10,Cc1ccc2nc(-c3ccc(NCCOCCOCC(=O)N[C@H](C(=O)N4C[C@H](O)C[C@H]4C(=O)NCc4ccc(-c5scnc5C)cc4)C(C)(C)C)cc3)sc2c1 [Compound 64],> 500
11,Cc1ccc2nc(-c3ccc(NCCOCCOCCNc4cccc5c4C(=O)N(C4CCC(=O)NC4=O)C5=O)cc3)sc2c1 (stereo not shown) [Compound 65],100 to 500
12,Cc1ccc2nc(-c3ccc(NC(=O)COCCOCCNC(=O)[C@H](CC(C)C)NC(=O)[C@@H](O)[C@H](N)Cc4ccccc4)cc3)sc2c1 [Compound 66],100 to 500
13,Cc1ccc2nc(-c3ccc(NCCOCCOCCOc4cc(-c5scnc5C)ccc4CNC(=O)C4C[C@@H](O)CN4C(=O)[C@H](C(C)C)N4Cc5ccccc5C4=O)cc3)sc2c1 (stereo partly shown) [Compound 67],100 to 500
14,Cc1ccc2nc(-c3ccc(NCCOCCOCCOCCNc4cccc5c4C(=O)N(C4CCC(=O)NC4=O)C5=O)cc3)sc2c1 (stereo not shown) [Compound 68],100 to 500
15,COc1ccc(NC(=O)c2ccnc(N(CCOCCOCCNC(=O)[C@H](CC(C)C)NC(=O)[C@@H](O)[C@H](N)Cc3ccccc3)c3ccccc3)n2)cn1 [Compound 69],> 500
